From patent publication US20100273651A1 (priority 2007, published 2010)
Like-named read-outs stand apart in the source and are kept apart here.

Key:
Septoria tritici [1] = assay: Use example No. 3: activity against Septoria tritici in the microtiter test (Septtr); type: cell-based; conditions: relative growth vs active compound-free control (100%), 405 nm, day 7
Pyricularia oryzae = type: cell-based
Phakopsora pachyrhizi = assay: Use Example 1: curative activity against soybean rust, greenhouse (Phakpa K1); type: in vivo; conditions: soybean seedlings sprayed 24 h after inoculation, visual rating after 14 days, untreated 90
Protocol: (§1) The active compounds were prepared separately or jointly as a stock solution comprising 25 mg of active compound which was made up to 10 ml using a mixture of acetone and/or DMSO and the emulsifier Uniperolt EL (wetting agent having emulsifying and dispersing action based on ethoxylated alkyl phenols) in a volume ratio of solvent/emulsifier of 99:1. The mixture was then made up to 100 ml with water. This stock solution was diluted with the solvent/emulsifier/water mixture described to give the concentration of active compounds stated below. Alternatively, the active compounds were used as a commercial finished formulation and diluted with water to the concentration of active compounds stated.
Leaves of potted soybean seedlings were inoculated with a spore suspension of soybean rust (Phakpsora pachyrhizi). The pots were then placed in a chamber with high atmospheric humidity (90 to 95%) and at 23 to 27° C. for 24 hours. During this time, the spores germinated and the germ tubes penetrated into the leaf tissue. The infected plants were then sprayed to runoff point with the active compound solution described above at the active compound concentration stated below. After the spray coating had dried on, the test plants were cultivated in a greenhouse at temperatures between 23 and 27° C. and 60 to 80% relative atmospheric humidity for 14 days. The extent of the rust fungus development on the leaves was then determined visually in percent infection.

Septoria tritici [2] = assay: Use Example 2: protective activity against Septoria leaf spot of wheat, greenhouse (Septtr P2); type: in vivo; conditions: wheat seedlings inoculated 2 days after spraying, % infection of total leaf area after 21 days, untreated 90
Protocol: as §1
Leaves of potted wheat seedlings were sprayed to runoff point with an aqueous suspension having the active compound concentration stated below. 2 days after the spray coating had dried on, they were inoculated with an aqueous spore suspension of Septoria tritici. The test plants were then placed in a greenhouse at temperatures between 20 and 24° C. and a relative atmospheric humidity close to 100% for 4 days and then at temperatures between 18 and 22° C. and an atmospheric humidity of about 70%. After 21 days, the extent of the development of the disease was determined visually in % infection of the total leaf area.

Leptno = assay: Comparative experiments: growth of Leptno (microtest, method not described); type: cell-based; conditions: comparative experiments against prior-art compound
[3] = relative growth vs active compound-free control (100%), 405 nm, day 7
[4] = comparative experiments against prior-art compound

1,2-bis[1-rel-(2S,3R)-2-(2-chlorophenyl)-3-(2,4-dichlorophenyl)oxiran-2-ylmethyl-1H-1,2,4-triazole-5-yl]disulfane [Compound 14]
Growth in % at 31 ppm for Septtr (Septoria tritici [1]): 4%

1-[rel-(2S,3R)-2-(2-chlorophenyl)-3-(2,4-dichlorophenyl)oxiran-2-ylmethyl]-1H-1,2,4-triazole-5(4H-6-thione [Compound 2]
Growth in % at 31 ppm for Pyrior (Pyricularia oryzae; [3]): 5%
Infection in % at 150 ppm for Phakpa K1 (Phakopsora pachyrhizi): 3%
Infection in % at 150 ppm for Septtr P2 (Septoria tritici [2]): 10%

S=c1[nH]cnn1C[C@]1(c2ccccc2)O[C@@H]1c1ccc(Cl)c(Cl)c1Cl (relative stereo) [Compound 4, 1-[rel-(2S,3R)-2-phenyl-3-(2,3,4-trichlorophenyl)oxiran-2-ylmethyl]-1H-1,2,4-triazole-5(4H)-thione]
Infection in % at 150 ppm for Phakpa K1 (Phakopsora pachyrhizi): 0%
Infection in % at 150 ppm for Septtr P2 (Septoria tritici [2]): 15%

CSc1ncnn1C[C@]1(c2ccccc2Cl)O[C@@H]1c1ccc(Cl)cc1Cl (relative stereo) [Compound 5, 1-[rel-(2S,3R)-2-(2-chlorophenyl)-3-(2,4-dichlorophenyl)oxiran-2-ylmethyl]-5-(methylthio)-1H-1,2,4-triazole]
Growth in % at 31 ppm for Septtr (Septoria tritici [1]): 0%
Growth in % at 31 ppm for Pyrior (Pyricularia oryzae; [4]): 0%

CSc1ncnn1C[C@]1(c2ccc(F)cc2)O[C@@H]1c1cccc(Cl)c1F (relative stereo) [Compound 7, 1-[rel-(2S,3R)-3-(3-chloro-2-fluorophenyl)-2-(4-fluorophenyl)oxiran-2-ylmethyl]-5-(methylthio)-1,2,4-triazole]
Infection in % at 600 ppm for Phakpa K1 (Phakopsora pachyrhizi; 600 ppm): 0%

CS(=O)(=O)c1ncnn1C[C@]1(c2ccccc2Cl)O[C@@H]1c1ccc(Cl)cc1Cl (relative stereo) [Compound 8, 1-[rel-(2S,3R)-2-(2-chlorophenyl)-3-(2,4-dichlorophenyl)-oxiran-2-ylmethyl]-5-(methylsulfonyl)-1H-1,2,4-triazole]
Growth in % at 31 ppm for Pyrior (Pyricularia oryzae; [3]): 8%

CC(=O)Sc1ncnn1C[C@]1(c2ccccc2Cl)O[C@@H]1c1ccc(Cl)cc1Cl (relative stereo) [Compound 9, S-1-[rel-(2S,3R)-2-(2-chlorophenyl)-3-(2,4-dichorophenyl)oxiran-2-ylmethyl]-1H-1,2,4-triazole-5-ylethanethioate]
Growth in % at 31 ppm for Pyrior (Pyricularia oryzae; [3]): 1%

CC(=O)Sc1ncnn1C[C@]1(c2ccccc2)O[C@@H]1c1ccc(Cl)c(Cl)c1Cl (relative stereo) [Compound 10, S-1-[rel-(2S,3R)-2-phenyl)-3-(2,3,4-trichlorophenyl)oxiran-2-ylmethyl]-1H-1,2,4-triazole-5-yl ethanethioate]
Growth in % at 31 ppm for Septtr (Septoria tritici [1]): 5%

COC(=O)Sc1ncnn1C[C@]1(c2ccccc2Cl)O[C@@H]1c1ccc(Cl)cc1Cl (relative stereo) [Compound 11, S-{2-[2-(2-chlorophenyl)-3-(2,4-dichlorophenyl)oxiranylmethyl]-2H-[1,2,4]triazole-3-yl}methyl rel-(2S,3R)-thiocarbonate]
Growth in % at 31 ppm for Pyrior (Pyricularia oryzae; [3]): 3%

N#CSc1ncnn1C[C@]1(c2ccccc2Cl)O[C@@H]1c1ccc(Cl)cc1Cl (relative stereo) [Compound 12, 1-[rel-(2S,3R)-2-(2-chlorophenyl)-3-(2,4-dichlorophenyl)oxiran-2-ylmethyl]-5-thlocyanato-1H-1,2,4-triazole]
Infection in % at 150 ppm for Phakpa K1 (Phakopsora pachyrhizi): 0%
Infection in % at 150 ppm for Septtr P2 (Septoria tritici [2]): 10%

[Na+].[S-]c1ncnn1C[C@]1(c2ccccc2Cl)O[C@@H]1c1ccc(Cl)cc1Cl (relative stereo) [Compound 13, sodium rel-(2S,3R)-2-(2-chlorophenyl)-3-(2,4-dichlorophenyl)oxiran-2-ylethyl]-1H-[1,2,4]triazole-5-thiolate]
Growth in % at 31 ppm for Pyrior (Pyricularia oryzae; [3]): 19%
Growth in % at 31 ppm for Leptno (Leptno): 19%

CSc1ncnn1C[C@]1(c2ccccc2Cl)O[C@@H]1c1ccccc1Cl [WO9638440, p. 14 (5th compound), reference compound]
Growth in % at 31 ppm for Pyrior (Pyricularia oryzae; [4]): 83%

[Na+].[S-]c1ncnn1C[C@]1(c2ccccc2Cl)O[C@@H]1c1ccccc1Cl [WO9741107, p. 50 (5th compound), reference compound]
Growth in % at 31 ppm for Leptno (Leptno): 51%
